Measurements published in patent publication US5792742A, “Fibrin-binding peptide fragments of fibronectin” (New York University, priority 1994, dated 1998).

Tests used:
fibrin = test: Reversibility (displacement) of 125I-11 kDa FBP binding to fibrin; conditions: 2,000 nM unlabeled peptide (22.2 molar excess)
Protocol: Detachable microtiter wells previously coated with 15 ng of fibrin were incubated with 100 ng/0.1 ml FBB (90 nM) of ^125 I-11 kDa for 1 hour at 22° C. The unbound radiolabeled protein was removed by extensive washing with FBB containing 0.1% Tween 20. […] The iodinated 11 kDa that remained bound to the removable wells was determined by quantitating the radioactivity attached to the individual wells in a gamma counter. Results were expressed as percentage of control wells incubated with buffer alone.

thrombi = test: Preliminary thrombus binding dose experiment in rats; assay type: in vivo; conditions: 3.4 μCi/13.3 μg/rat (550 gr)
Protocol: Determination of thrombus to blood and thrombus to muscle ratios: Before performing the pharmacokinetic studies, the arterial and venous vessels of the same animals are wounded until a thrombus is formed. The ascending vena cava (below the kidneys) and the descending aorta (immediately above the bifurcation) are clamped with a rubber tipped mosquito clamps for 2 hours for the artery and one hour for the vein. A thrombotic occlusion is formed of approximately 1.5 cm length. The specific binding of ^125 I-FBP (11 kDa to start) to the preformed thrombus, is determined compared to blood and muscle (wt/wt), over time, following injection. The amount of ^125 I-FBP that binds to an injured vessel versus an uninjured vessel is also quantitated. The time for optimal binding is crucial for feasibility of imaging (less than two hours would be considered adequate). The testing of binding to thrombi prepared 24 hours (or longer) ahead (preformed thrombi) compared to newly formed thrombi is also performed. This will determine the efficacy of ^125 I-FBP to older and newly forming thrombi.
Dosimetry Studies: Determination of the optimal dose (μCi/μg/kg) required for binding (Dose response) to thrombi: Three different doses were injected following injury, and thrombi removed at the various indicated above.

Substance: 11 kDa FBP: 11 kDa C-terminal proteolytic (subtilisin) fibrin-binding fragment of human plasma fibronectin, residues 2123-2232 of SEQ ID NO:1
- % of bound iodinated 11 kDa reversibly displaced (fibrin): 42%
- binding to thrombi compared to blood (thrombi): sufficient binding to thrombi compared to blood
